Measurements: PMC6199744, “Development of Chemical Proteomics for the Folateome and Analysis of the Kinetoplastid Folateome” (ACS Infectious Diseases, 2018)
Like-named read-outs stand apart in the source and are kept apart here.

Assays:
Format in all cases: binding
[1] = target: T1, HeLa cell extract proteins (Homo sapiens, UniProt Q09161)
T1 construct: endogenous in cells; host or cells: HeLa cell extract
T1 sequence (Q09161 1-790): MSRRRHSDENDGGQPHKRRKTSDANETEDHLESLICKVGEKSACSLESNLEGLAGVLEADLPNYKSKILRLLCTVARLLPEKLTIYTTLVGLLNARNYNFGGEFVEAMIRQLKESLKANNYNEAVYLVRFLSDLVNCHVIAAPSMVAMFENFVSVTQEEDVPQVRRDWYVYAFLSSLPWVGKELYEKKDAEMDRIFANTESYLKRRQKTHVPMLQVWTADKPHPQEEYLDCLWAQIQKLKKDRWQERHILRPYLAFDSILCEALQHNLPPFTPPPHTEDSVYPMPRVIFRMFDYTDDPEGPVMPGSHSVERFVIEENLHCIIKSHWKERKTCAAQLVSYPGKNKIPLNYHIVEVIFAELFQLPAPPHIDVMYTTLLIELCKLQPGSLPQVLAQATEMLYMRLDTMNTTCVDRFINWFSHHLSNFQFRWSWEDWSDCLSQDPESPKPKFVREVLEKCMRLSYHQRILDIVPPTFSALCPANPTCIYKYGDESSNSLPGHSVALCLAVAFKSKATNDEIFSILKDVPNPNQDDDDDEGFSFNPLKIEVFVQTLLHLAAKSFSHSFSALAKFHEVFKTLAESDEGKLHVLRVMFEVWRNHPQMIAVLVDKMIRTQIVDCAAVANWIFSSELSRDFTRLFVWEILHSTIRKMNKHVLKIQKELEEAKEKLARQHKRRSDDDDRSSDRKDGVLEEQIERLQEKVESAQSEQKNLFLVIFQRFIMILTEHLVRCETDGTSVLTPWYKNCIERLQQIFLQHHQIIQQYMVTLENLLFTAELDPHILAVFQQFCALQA

[2] = target: T2, HeLa cell extract proteins (Homo sapiens, UniProt Q06830)
T2 construct: endogenous in cells; host or cells: HeLa cell extract
T2 sequence (Q06830 1-199): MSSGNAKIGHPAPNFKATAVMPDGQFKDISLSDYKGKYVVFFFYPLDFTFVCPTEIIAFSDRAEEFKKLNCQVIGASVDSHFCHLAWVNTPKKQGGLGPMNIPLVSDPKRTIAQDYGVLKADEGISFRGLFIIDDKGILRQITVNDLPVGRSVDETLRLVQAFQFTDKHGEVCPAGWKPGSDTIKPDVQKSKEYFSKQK

[3] = target: T3, HeLa cell extract proteins (Homo sapiens, UniProt Q9H974)
T3 construct: endogenous in cells; host or cells: HeLa cell extract
T3 sequence (Q9H974 whole entry): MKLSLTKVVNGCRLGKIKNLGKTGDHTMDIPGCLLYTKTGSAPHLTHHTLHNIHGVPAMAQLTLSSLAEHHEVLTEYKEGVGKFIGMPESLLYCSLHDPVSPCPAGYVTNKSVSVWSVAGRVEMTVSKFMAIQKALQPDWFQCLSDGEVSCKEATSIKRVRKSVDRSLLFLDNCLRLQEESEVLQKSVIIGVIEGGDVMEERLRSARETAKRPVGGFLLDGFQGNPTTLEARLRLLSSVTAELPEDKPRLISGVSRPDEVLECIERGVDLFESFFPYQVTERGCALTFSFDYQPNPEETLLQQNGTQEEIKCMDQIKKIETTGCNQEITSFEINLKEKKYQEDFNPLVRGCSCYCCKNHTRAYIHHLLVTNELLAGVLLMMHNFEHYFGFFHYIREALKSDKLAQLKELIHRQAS

[4] = target: T4, HeLa cell extract proteins (Homo sapiens, UniProt O75152)
T4 construct: endogenous in cells; host or cells: HeLa cell extract
T4 sequence (O75152 whole entry): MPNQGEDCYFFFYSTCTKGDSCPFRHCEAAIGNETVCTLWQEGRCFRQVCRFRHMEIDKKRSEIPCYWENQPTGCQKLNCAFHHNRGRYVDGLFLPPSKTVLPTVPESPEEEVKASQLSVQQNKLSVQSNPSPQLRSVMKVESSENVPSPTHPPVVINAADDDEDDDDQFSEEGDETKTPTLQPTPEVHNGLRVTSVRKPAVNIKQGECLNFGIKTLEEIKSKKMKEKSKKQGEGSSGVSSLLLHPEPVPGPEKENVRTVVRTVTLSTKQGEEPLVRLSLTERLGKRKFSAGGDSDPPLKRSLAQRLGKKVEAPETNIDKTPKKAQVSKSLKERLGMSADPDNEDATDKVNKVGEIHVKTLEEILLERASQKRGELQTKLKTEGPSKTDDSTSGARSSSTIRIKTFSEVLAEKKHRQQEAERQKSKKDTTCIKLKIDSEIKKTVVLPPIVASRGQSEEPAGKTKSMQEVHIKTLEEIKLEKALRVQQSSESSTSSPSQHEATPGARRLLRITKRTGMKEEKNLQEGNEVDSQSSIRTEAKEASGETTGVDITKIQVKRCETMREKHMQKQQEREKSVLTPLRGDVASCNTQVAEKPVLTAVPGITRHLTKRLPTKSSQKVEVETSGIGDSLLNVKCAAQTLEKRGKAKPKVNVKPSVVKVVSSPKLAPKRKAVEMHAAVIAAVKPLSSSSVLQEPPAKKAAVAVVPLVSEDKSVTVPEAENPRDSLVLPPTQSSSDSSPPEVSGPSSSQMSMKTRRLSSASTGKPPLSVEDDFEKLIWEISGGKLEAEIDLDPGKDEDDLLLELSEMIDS

[5] = target: T5, HeLa cell extract proteins (Homo sapiens, UniProt P04080)
T5 construct: endogenous in cells; host or cells: HeLa cell extract
T5 sequence (P04080 1-98): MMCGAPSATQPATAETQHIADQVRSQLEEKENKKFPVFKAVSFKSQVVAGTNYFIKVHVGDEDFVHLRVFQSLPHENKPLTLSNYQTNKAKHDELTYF

[6] = target: T6, HeLa cell extract proteins (Homo sapiens, UniProt Q8NEZ5)
T6 construct: endogenous in cells; host or cells: HeLa cell extract
T6 sequence (Q8NEZ5 1-403): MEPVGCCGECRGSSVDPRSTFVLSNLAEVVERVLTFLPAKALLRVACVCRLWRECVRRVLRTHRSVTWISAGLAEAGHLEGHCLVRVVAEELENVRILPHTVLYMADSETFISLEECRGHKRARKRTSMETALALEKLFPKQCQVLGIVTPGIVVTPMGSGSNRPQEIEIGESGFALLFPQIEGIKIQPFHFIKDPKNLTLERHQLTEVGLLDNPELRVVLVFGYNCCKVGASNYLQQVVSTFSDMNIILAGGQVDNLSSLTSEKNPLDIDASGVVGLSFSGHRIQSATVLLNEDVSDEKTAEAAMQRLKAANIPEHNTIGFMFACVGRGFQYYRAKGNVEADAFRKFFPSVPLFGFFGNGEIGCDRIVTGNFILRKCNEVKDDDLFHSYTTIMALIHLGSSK

[7] = target: T7, HeLa cell extract proteins (Homo sapiens, UniProt P27797)
T7 construct: endogenous in cells; host or cells: HeLa cell extract
T7 sequence (P27797 18-417): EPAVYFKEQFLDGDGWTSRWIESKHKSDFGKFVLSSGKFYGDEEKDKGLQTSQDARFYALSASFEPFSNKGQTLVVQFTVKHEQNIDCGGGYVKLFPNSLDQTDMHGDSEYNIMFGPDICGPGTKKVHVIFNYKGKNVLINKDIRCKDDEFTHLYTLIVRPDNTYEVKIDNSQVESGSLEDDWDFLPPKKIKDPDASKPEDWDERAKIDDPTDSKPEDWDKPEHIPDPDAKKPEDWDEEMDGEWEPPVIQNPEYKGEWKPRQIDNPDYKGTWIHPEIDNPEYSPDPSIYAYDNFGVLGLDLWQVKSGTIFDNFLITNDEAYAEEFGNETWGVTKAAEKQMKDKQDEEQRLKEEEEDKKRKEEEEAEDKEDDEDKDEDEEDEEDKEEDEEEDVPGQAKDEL

[8] = target: T8, HeLa cell extract proteins (Homo sapiens, UniProt P06730)
T8 construct: endogenous in cells; host or cells: HeLa cell extract
T8 sequence (P06730 whole entry): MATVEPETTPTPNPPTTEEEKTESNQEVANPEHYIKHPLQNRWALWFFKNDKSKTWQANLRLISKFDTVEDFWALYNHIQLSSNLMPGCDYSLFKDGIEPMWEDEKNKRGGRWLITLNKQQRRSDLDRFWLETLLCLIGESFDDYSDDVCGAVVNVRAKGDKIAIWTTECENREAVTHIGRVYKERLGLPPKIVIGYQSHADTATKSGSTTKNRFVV

[9] = target: T9, HeLa cell extract proteins (Homo sapiens, UniProt Q05048)
T9 construct: endogenous in cells; host or cells: HeLa cell extract
T9 sequence (Q05048 1-431): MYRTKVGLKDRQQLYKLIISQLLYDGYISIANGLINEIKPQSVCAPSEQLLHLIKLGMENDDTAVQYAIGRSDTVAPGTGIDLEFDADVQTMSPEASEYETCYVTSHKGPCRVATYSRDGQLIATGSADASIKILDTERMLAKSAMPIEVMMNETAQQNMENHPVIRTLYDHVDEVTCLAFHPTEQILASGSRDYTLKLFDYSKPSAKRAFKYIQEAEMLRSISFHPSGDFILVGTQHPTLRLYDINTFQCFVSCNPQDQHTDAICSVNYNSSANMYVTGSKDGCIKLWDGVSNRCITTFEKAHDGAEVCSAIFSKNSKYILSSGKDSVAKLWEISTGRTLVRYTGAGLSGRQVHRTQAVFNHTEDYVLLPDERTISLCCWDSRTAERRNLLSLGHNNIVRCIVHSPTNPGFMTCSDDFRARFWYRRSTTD

[10] = HeLa, protein ZC3H11A (ZINC FINGER CCCH DOMAIN-CONTAINING PROTEIN 11A)

Row | SMILES | fold changes relative to vehicle control ([1]; protein NCBP1, HeLa) | fold changes relative to vehicle control ([2]; HeLa, protein PRDX1) | fold changes relative to vehicle control ([3]; protein QTRTD1, HeLa) | fold changes relative to vehicle control [4, 10] | fold changes relative to vehicle control ([5]; HeLa, protein CSTB) | fold changes relative to vehicle control ([6]; HeLa, protein FBXO22) | fold changes relative to vehicle control ([7]; HeLa, protein CALR) | fold changes relative to vehicle control ([8]; HeLa, captured protein EIF4E) | fold changes relative to vehicle control ([9]; HeLa, captured protein CSTF1) | fold changes relative to vehicle control ([1]; captured protein NCBP1, HeLa) | fold changes relative to vehicle control ([2]; protein PRDX1, HeLa) | fold changes relative to vehicle control ([3]; HeLa, protein QTRTD1) | fold changes relative to vehicle control ([4]; captured protein ZC3H11A, HeLa) | fold changes relative to vehicle control ([6]; captured protein FBXO22, HeLa) | fold changes relative to vehicle control ([8]; HeLa, protein EIF4E) | fold changes relative to vehicle control ([9]; HeLa, protein CSTF1) | other results
1 | Nc1nc2c(c(=O)[nH]1)N(C=O)C(CNc1ccc(C(=O)N[C@@H](CCC(=O)O)C(=O)O)cc1)CN2 (stereo partly drawn) [LEU, leucovorin] | 0.81 | 1.01 | 0.93 | 1.06 | 1.07 | 1 | 1.15 | 1.09 | 1 |  |  |  |  |  |  |  | 
2 | Nc1nc2[nH]cc(CCc3ccc(C(=O)N[C@@H](CCC(=O)O)C(=O)O)cc3)c2c(=O)[nH]1 [PTX, pemetrexed] |  |  |  |  |  |  |  |  |  |  |  |  |  |  |  |  | fold changes relative to vehicle control [1]: 0.95; fold changes relative to vehicle control [2]: 1.05; fold changes relative to vehicle control [3]: 0.86; fold changes relative to vehicle control [4]: 0.96; fold changes relative to vehicle control [5]: 1.26; fold changes relative to vehicle control [6]: 1; fold changes relative to vehicle control [7]: 1.22; fold changes relative to vehicle control [8]: 0.99; fold changes relative to vehicle control [9]: 0.99
3 | CCCCCCOc1ccc(Cc2cnc(N)nc2N)cc1 [compound 1] |  |  |  |  | 1.08 |  |  |  |  | 0.91 | 1.24 | 0.46 | 0.95 | 0.89 | 0.94 | 1.05 | fold changes relative to vehicle control ([7]; HeLa, protein CALR (CA[…].)): 1.46 fold
4 | CCCCCCOc1cccc(Cc2cnc(N)nc2N)c1 [compound 2] |  |  |  |  | 0.99 |  |  |  |  | 1.03 | 2.05 | 0.93 | 1.01 | 1.02 | 0.97 | 0.99 | fold changes relative to vehicle control ([7]; HeLa, protein CALR (CALRETICULIN PRECURSOR.)): 3.14 fold
5 | Nc1nc2cccc(-c3ccccc3)c2n1Cc1ccc(Cl)c(Cl)c1 [compound 3] |  |  |  |  | 1.17 |  |  |  |  | 0.96 | 0.85 | 0.99 | 0.94 | 0.96 | 1 | 0.98 | fold changes relative to vehicle control ([7]; HeLa, protein CALR (CA[…].)): 0.77 fold
6 | NCCOCCOCC(=O)Nc1nc2ncc(CNc3ccc(C(=O)NC(CCC(=O)O)C(=O)O)cc3)nc2c(=O)[nH]1 (stereo not drawn) [compound 6] | 0.89 | 1.1 | 0.33 | 0.92 | 1.29 | 0.82 | 1.33 | 1.03 | 0.88 |  |  |  |  |  |  |  | 
7 | NCCCNc1ccc(C(=O)NC(CCC(=O)O)C(=O)O)cc1 (stereo not drawn) [compound 7] | 0.93 | 0.87 | 0.99 | 1.01 | 1.24 | 0.98 | 0.93 | 1.1 | 1.02 |  |  |  |  |  |  |  | 
